Structures can show the parent of a compound that is named as a salt.

Test system in one data set: not given
Experiment: not given
Conditions: not given
One may read the melting point as the temperature of the solid-liquid transition. `Cc1c(F)cccc1Cc1c(-c2ccccc2)c2ccccn2c1C(=O)N1CCNCC1` (as salt: hydrochloride) [Example 1, [2-(3-Fluoro-2-methyl-benzyl)-1-phenyl-indolizin-3-yl]-piperazin-1-yl-methanone]: the melting point stood at 263 °C.

For `Cc1c(F)cccc1Cc1c(C2CCCCC2)c2ccccn2c1C(=O)N1CCNCC1` (as salt: hydrochloride) [Example 2, [1-Cyclohexyl-2-(3-fluoro-2-methyl-benzyl)-indolizin-3-yl]-piperazin-1-yl-methanone], the melting point fell in the range of 317 to 318 °C.

For the molecule `O=C(c1c(Cc2c(F)cccc2Cl)c(-c2ccccc2)c2ccccn12)N1CCNCC1` (as salt: hydrochloride) [Example 3, [2-(2-Chloro-6-fluoro-benzyl)-1-phenyl-indolizin-3-yl]-piperazin-1-yl-methanone], the melting point was 304 °C.

In turn, `CNC(=O)c1ccn2c(C(=O)N3CCNCC3)c(Cc3cccc(F)c3C)c(-c3ccccc3)c2c1` (as salt: hydrochloride) [Example 4, 2-(3-Fluoro-2-methyl-benzyl)-1-phenyl-3-(piperazine-1-carbonyl)-indolizine-7-carboxylic acid methylamide] registered a melting point of 205 °C.

In the case of `Cc1c(F)cccc1Cc1c(-c2ccccc2)c2ccccn2c1C(=O)N1CCN[C@@H](CCO)C1` (as salt: hydrochloride) [Example 5, [2-(3-Fluoro-2-methyl-benzyl)-1-phenyl-indolizin-3-yl]-[(S)-3-(2-hydroxy-ethyl)-piperazin-1]-yl-methanone], the melting point turned out to be 202 °C.

Regarding `Cc1c(F)cccc1Cc1c(-c2ccccc2)c2ccccn2c1C(=O)N1CCN[C@@H](CC(=O)NCC2CCOCC2)C1` (as salt: hydrochloride) [Example 6, 2-{(S)-4-[2-(3-Fluoro-2-methyl-benzyl)-1-phenyl-indolizine-3-carbonyl]-piperazin-2-yl}-N-(tetrahydropyran-4-ylmethyl)-acetamide], the melting point turned out to be 147 °C.

Regarding `Cc1c(F)cccc1Cc1c(-c2ccccc2)c2ccccn2c1C(=O)N1CCN[C@@H](CC(=O)NCC(C)(C)C(N)=O)C1` (as salt: hydrochloride) [Example 7, 3-(2-{(S)-4-[2-(3-Fluoro-2-methyl-benzyl)-1-phenyl-indolizine-3-carbonyl]-piperazin-2-yl}-acetylamino)-2,2-dimethyl-propionamide], the melting point was 174 to 176 °C.

On to `CNC(=O)c1cnn2c(C(=O)N3CCNCC3)c(Cc3cccc(F)c3C)c(-c3ccccc3)c2c1` (as salt: hydrochloride) [Example 8, 6-(3-Fluoro-2-methyl-benzyl)-5-phenyl-7-(piperazine-1-carbonyl)-pyrrolo[1,2-b]pyridazin-3-carboxylic acid methylamide], for which the melting point was 208 to 210 °C.

In turn, `Cc1c(F)cccc1Cc1c(-c2ccccc2)c2cccnn2c1C(=O)N1CCNCC1` (as salt: hydrochloride) [Example 9, [6-(3-Fluoro-2-methyl-benzyl)-5-phenyl-pyrrolo[1,2-b]pyridazin-7-yl]-piperazin-1-yl-methanone] yielded a melting point of 140 to 142 °C.

As to `Cc1c(F)cccc1Cc1c(-c2ccccc2)c2cc(O)cnn2c1C(=O)N1CCNCC1` (as salt: hydrochloride) [Example 10, [6-(3-Fluoro-2-methyl-benzyl)-3-hydroxy-5-phenyl-pyrrolo[1,2-b]pyridazin-7-yl]-piperazin-1-yl-methanone], the melting point fell in the range of 206 to 208 °C.

With `CNC(=O)c1ccc2c(-c3ccccc3)c(Cc3cccc(F)c3C)c(C(=O)N3CCNCC3)n2c1` (as salt: hydrochloride) [Example 13, 2-(3-Fluoro-2-methyl-benzyl)-1-phenyl-3-(piperazine-1-carbonyl)-indolizine-6-carboxylic acid methylamide], the melting point was 273 °C.

In the case of `Cc1cccc(C)c1Cc1c(-c2ccccc2)c2ccccn2c1C(=O)N1CCN[C@H](C)C1` (as salt: hydrochloride) [Example 17, [2-(2,6-Dimethyl-benzyl)-1-phenyl-indolizin-3-yl)-((R)-3-methyl-piperazin-1-yl)-methanone], the melting point is 302 °C.

In turn, `Cc1c(F)cccc1Cc1c(-c2ccccc2)c2ccccn2c1C(=O)N1CCN[C@@H](CO)C1` (as salt: hydrochloride) [Example 22] had a melting point of 180 to 181 °C.

With `CNC(=O)CC[C@H]1CN(C(=O)c2c(Cc3cccc(F)c3C)c(-c3ccccc3)c3ccccn23)CCN1` (as salt: hydrochloride) [Example 26], the melting point lay in the range of 127 to 129 °C.

Molecule `COC(=O)CCNC(=O)C[C@H]1CN(C(=O)c2c(Cc3cccc(F)c3C)c(-c3ccccc3)c3ccccn23)CCN1` (as salt: hydrochloride) [Example 30] showed a melting point of 112 to 113 °C.

Turning to `Cc1c(F)cccc1Cc1c(-c2ccccc2)c2ccccn2c1C(=O)N1CCN[C@@H](CC(=O)NCCS(C)(=O)=O)C1` (as salt: hydrochloride) [Example 31], the melting point was in the range of 166 to 168 °C.

As for `Cc1c(F)cccc1Cc1c(-c2ccccc2)c2ccccn2c1C(=O)N1CCN[C@@H](CC(=O)NCc2cccnc2)C1` (as salt: hydrochloride) [Example 32], the melting point is 181 to 182 °C.

For the molecule `COc1ccn2c(C(=O)N3CCNCC3)c(Cc3cccc(F)c3C)c(-c3ccccc3)c2c1` (as salt: hydrochloride) [Example 35, [2-(3-fluoro-2-methyl-benzyl)-7-methoxy-1-phenyl-indolizin-3-yl]-piperazin-1-yl-methanone], the melting point was in the range of 124 to 125 °C.

In turn, `Cc1c(F)cccc1Cc1c(-c2ccccc2)c2cc(C(=O)N3CCCCC3)cnn2c1C(=O)N1CCN[C@@H](CC(=O)NCCO)C1` (as salt: hydrochloride) [Example 39] came in with a melting point of 164 to 166 °C.

`CCNC(=O)c1cnn2c(C(=O)N3CCN[C@@H](CC(=O)NCCOC)C3)c(Cc3cccc(F)c3C)c(-c3ccccc3)c2c1` (as salt: hydrochloride) [Example 42, 6-(3-fluoro-2-methyl-benzyl)-7-{(S)-3-[(2-methoxy-ethylcarbamoyl)-methyl]-piperazine-1-carbonyl}-5-phenyl-pyrrolo[1,2-b]pyridazine-3-carboxylic acid ethylamide] registered a melting point of 151 to 153 °C.

`COCCN(C)C(=O)C[C@H]1CN(C(=O)c2c(Cc3cccc(F)c3C)c(-c3ccccc3)c3cc(C(=O)N(C)C)cnn23)CCN1` (as salt: hydrochloride) [Example 46] came in with a melting point of 130 to 132 °C.

In another data set the target is T1, Recombinant human renin (Homo sapiens, UniProt P00797).
T1 construct: purchased Cayman 10006217
T1 sequence (P00797 67-406): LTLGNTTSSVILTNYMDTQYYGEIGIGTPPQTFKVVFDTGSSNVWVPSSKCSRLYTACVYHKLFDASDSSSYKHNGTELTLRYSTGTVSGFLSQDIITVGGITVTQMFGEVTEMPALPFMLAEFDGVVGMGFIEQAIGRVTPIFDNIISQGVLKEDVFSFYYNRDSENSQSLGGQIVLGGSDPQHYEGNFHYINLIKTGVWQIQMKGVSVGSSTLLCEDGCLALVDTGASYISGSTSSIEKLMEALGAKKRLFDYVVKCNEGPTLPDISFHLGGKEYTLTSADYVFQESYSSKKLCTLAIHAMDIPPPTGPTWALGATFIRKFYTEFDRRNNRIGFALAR
Kind of data set: Inhibition of renin (fluorogenic peptide substrate). In kind it is biochemical. To be noted: recombinant human renin 5 nM, fluorogenic peptide substrate 10 μM, 2 h at room temperature, Tris buffer pH 8; compounds tested as the obtained salt. As to the method:
Recombinant human renin (Cayman, no. 10006217) at a concentration of 5 nM was incubated with the test compounds at various concentrations and the synthetic substrate Dabcyl-γ-Abu-Ile-His-Pro-Phe-His-Leu-Val-Ile-His-Thr-EDANS (Bachem, no. M-2050; Dabcyl means the 4-(4-dimethylamino-phenylazo)-benzoyl group and EDANS means the amide with 5-[(2-aminoethyl)amino]-naphthalene-1-sulfonic acid) at a concentration of 10 μM for 2 h at room temperature in 0.05 M Tris buffer (pH 8) containing 0.1 M NaCl, 2.5 mM EDTA and 1.25 mg/ml bovine serum albumin. The increase in fluorescence, which is due to fluorescence resonance energy transfer, was recorded at an excitation wavelength of 330 nm and an emission wavelength of 485 nm in a microplate spectrofluorometer. Inhibitory concentrations IC50 were calculated from the percentage of inhibition of renin activity as a function of the concentration of the test compound. […] Representative IC50 values, which were determined with the compounds in the form of the obtained salt indicated in the examples above, are listed in Table 4.
Broadly, the IC50 is the midpoint of a concentration-inhibition curve. Take `Cc1c(F)cccc1Cc1c(-c2ccccc2)c2ccccn2c1C(=O)N1CCNCC1` [Example 1, [2-(3-Fluoro-2-methyl-benzyl)-1-phenyl-indolizin-3-yl]-piperazin-1-yl-methanone]: the concentration for half-maximal inhibition (IC50) came out at 7.1 nM.

Consider `Cc1c(F)cccc1Cc1c(C2CCCCC2)c2ccccn2c1C(=O)N1CCNCC1` [Example 2, [1-Cyclohexyl-2-(3-fluoro-2-methyl-benzyl)-indolizin-3-yl]-piperazin-1-yl-methanone], for which the half-inhibitory concentration (IC50) worked out at 38 nM.

`Cc1c(F)cccc1Cc1c(-c2ccccc2)c2ccccn2c1C(=O)N1CCN[C@@H](CC(=O)NCC2CCOCC2)C1` [Example 6, 2-{(S)-4-[2-(3-Fluoro-2-methyl-benzyl)-1-phenyl-indolizine-3-carbonyl]-piperazin-2-yl}-N-(tetrahydropyran-4-ylmethyl)-acetamide]: the half-inhibitory concentration (IC50) is 2.6 nM.

`Cc1c(F)cccc1Cc1c(-c2ccccc2)c2ccccn2c1C(=O)N1CCN[C@@H](CC(=O)NCC(C)(C)C(N)=O)C1` [Example 7, 3-(2-{(S)-4-[2-(3-Fluoro-2-methyl-benzyl)-1-phenyl-indolizine-3-carbonyl]-piperazin-2-yl}-acetylamino)-2,2-dimethyl-propionamide]: the half-maximal inhibitory concentration (IC50) came to 2.6 nM.

With `Cc1c(F)cccc1Cc1c(-c2ccccc2)c2cccnn2c1C(=O)N1CCNCC1` [Example 9, [6-(3-Fluoro-2-methyl-benzyl)-5-phenyl-pyrrolo[1,2-b]pyridazin-7-yl]-piperazin-1-yl-methanone], the IC50 came to 4.3 nM.

On to `Cc1c(F)cccc1Cc1c(-c2ccccc2)c2cc(O)cnn2c1C(=O)N1CCNCC1` [Example 10, [6-(3-Fluoro-2-methyl-benzyl)-3-hydroxy-5-phenyl-pyrrolo[1,2-b]pyridazin-7-yl]-piperazin-1-yl-methanone], for which the IC50 was 8.2 nM.

With `Cc1c(F)cccc1Cc1c(C(=O)N2CCNCC2)c2ccccn2c1-c1ccccc1` [Example 11, [2-(3-Fluoro-2-methyl-benzyl)-3-phenyl-indolizin-1-yl]-piperazin-1-yl-methanone], the IC50 was determined as 23 nM.

Regarding `Cc1c(F)cccc1Cc1c(C(=O)N2CCNCC2)c2cc(Br)ccn2c1-c1ccccc1` [Example 12, [7-Bromo-2-(3-fluoro-2-methyl-benzyl)-3-phenyl-indolizin-1-yl]-piperazin-1-yl-methanone], the IC50 amounted to 360 nM.

Values taken from patent US8415336B2, “Cyclic (aza)indolizinecarboxamides, their preparation and their use as pharmaceuticals” (Sanofi, priority 2009, dated 2013).
